Tested on: CRM1-mediated nuclear export of EYFP2-SV40NLS-NES reporter in HeLa cells
Assay: Inhibition of reporter nuclear export by cotransfected RFP-NES or by LMB
Type: cell-based
Conditions: HeLa cells expressing EYFP2-SV40NLS-PKI NES treated with LMB (5 nM, 16-18 h)

For `CCC(=C/[C@H](C)C/C=C/C(C)=C/[C@@H](C)C(=O)[C@@H](C)[C@H](O)[C@@H](C)C/C(C)=C/C(=O)O)/C=C/[C@@H]1OC(=O)C=C[C@@H]1C` [leptomycin B], the “decrease of nuclear export of PKI NES” value was 92%.

From paper PMC6232958 (Molecular Biology of the Cell, 2018)
